# Source: patent US10131675B2 (Genentech, Inc., priority 2015, dated 2018)
# Biological target: DLK (Homo sapiens (Human), UniProt Q12852)
# Experiment: DLK TR-FRET Inhibition Assay
# Format: biochemical
# Settings: N-terminally GST-tagged DLK (catalytic domain amino acid 1-520), MKK4 K131M substrate, 30 μM ATP; read-out: DLK HTRF Ki
# Procedure, shortened: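 GST-tagged DLK catalytic domain (aa 1-520, 5 nM) phosphorylates 40 nM HIS-tagged MKK4 K131M with 30 μM ATP, pH 7.5, 60 min at ambient temperature; compounds 1:3 serial from 20 uM. Phospho-MKK4 detected by TR-FRET (Eu-cryptate anti-phospho-MKK4/D2 anti-HIS) after 3 h.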
# Chain of DLK (Q12852 1-520): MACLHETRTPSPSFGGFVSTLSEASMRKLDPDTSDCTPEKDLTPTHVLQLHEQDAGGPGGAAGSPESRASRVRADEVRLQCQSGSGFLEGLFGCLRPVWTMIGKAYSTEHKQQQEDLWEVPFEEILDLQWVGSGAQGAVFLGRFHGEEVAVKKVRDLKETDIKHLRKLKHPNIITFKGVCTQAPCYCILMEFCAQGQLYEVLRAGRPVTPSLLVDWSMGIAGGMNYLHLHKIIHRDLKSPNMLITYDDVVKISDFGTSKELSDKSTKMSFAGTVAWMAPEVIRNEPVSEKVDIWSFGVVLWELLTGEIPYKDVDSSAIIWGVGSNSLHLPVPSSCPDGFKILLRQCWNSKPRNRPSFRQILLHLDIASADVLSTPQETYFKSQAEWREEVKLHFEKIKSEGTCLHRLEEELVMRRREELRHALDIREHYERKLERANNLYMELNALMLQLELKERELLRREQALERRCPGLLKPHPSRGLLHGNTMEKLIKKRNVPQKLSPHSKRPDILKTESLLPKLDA
row,Compound,Ki
1,"Nc1ncc(-c2nc(N3CC4CC3C4)c3nc4n(c3n2)CCOC42CCC2)cn1 [Example 114, 5-(4-(2-azabicyclo[2.1.1]hexan-2-yl)-8,9-dihydrospiro[[1,4]oxazino[4,3-e]purine-6,1′-cyclobutan]-2-yl)pyrimidin-2-amine]",52.1 nM
2,"Nc1ncc(-c2nc(C3CC3)c3nc4n(c3n2)CCOC42CCC2)cn1 [Example 115, 5-(4-cyclopropyl-8,9-dihydrospiro[[1,4]oxazino[4,3-e]purine-6,1′-cyclobutan]-2-yl)pyrimidin-2-amine]",226 nM
3,"CC1(C)OCCn2c1nc1c(N3CC4CC3C4)nc(-c3cnc(N)nc3)cc12 [Example 116, 5-(9-(2-azabicyclo[2.1.1]hexan-2-yl)-1,1-dimethyl-3,4-dihydro-1H-pyrido[3′,4′:4,5]imidazo[2,1-c][1,4]oxazin-7-yl)pyrimidin-2-amine]",21.3 nM
4,CCN(c1nc(-c2cnc(N)nc2)nc2c1nc1n2CCOC1(C)C)C1CC1 [Example 117],0.39 nM
5,"CC1(C)OCCn2c1nc1c(N3CC4CC3C4)nc(-c3cnc(N)cn3)cc12 [Example 118, 5-(9-(2-azabicyclo[2.1.1]hexan-2-yl)-1,1-dimethyl-3,4-dihydro-1H-pyrido[3′,4′:4,5]imidazo[2,1-c][1,4]oxazin-7-yl)pyrazin-2-amine]",1200 nM
6,"CC1(C)OCCn2c1nc1c(C3CC3)nc(-c3cnc(N)c(OC(F)F)c3)nc12 [Example 119, 5-(4-cyclopropyl-6,6-dimethyl-8,9-dihydro-6H-[1,4]oxazino[4,3-e]purin-2-yl)-3-(difluoromethoxy)pyridin-2-amine]",34.3 nM
7,CC1(C)OCCn2c1nc1c(C3CC3)nc(-c3cnc(N)nc3)cc12 [Example 120],359 nM
8,Cc1c[nH]c2ncc(-c3nc(C4CC4)c4nc5n(c4n3)CCOC5(C)C)cc12 [Example 121],5.48 nM
9,CC1(C)OCCn2c1nc1c(C3CC3)nc(-c3cnc(N)nc3)nc12 [Example 122],307 nM
10,"CC1(C)OCCn2c1nc1c(NC3CCCC3)nc(-c3cnc(N)nc3)nc12 [Example 123, 2-(2-aminopyrimidin-5-yl)-N-cyclopentyl-6,6-dimethyl-8,9-dihydro-6H-[1,4]oxazino[4,3-e]purin-4-amine]",60.1 nM
11,CC1(C)OCCn2c1nc1c(NC3CCC3)nc(-c3cnc(N)nc3)nc12 [Example 124],73.9 nM
12,"CC1(C)OCCn2c1nc1c(C3CC3)nc(-c3cnc4c(c3)CCN4)nc12 [Example 125, 4-cyclopropyl-2-(2,3-dihydro-1H-pyrrolo[2,3-b]pyridin-5-yl)-6,6-dimethyl-8,9-dihydro-6H-[1,4]oxazino[4,3-e]purine]",626 nM
13,"CC1(C)OCCn2c1nc1c(C3CC3)nc(-c3cnc(N)c(C#N)c3)nc12 [Example 126, 2-amino-5-(4-cyclopropyl-6,6-dimethyl-8,9-dihydro-6H-[1,4]oxazino[4,3-e]purin-2-yl)nicotinonitrile]",264 nM
14,"CC1(C)OCCn2c1nc1c(C3CC3)nc(-c3cnc(N)c4nc[nH]c34)nc12 [Example 127, 7-(4-cyclopropyl-6,6-dimethyl-8,9-dihydro-6H-[1,4]oxazino[4,3-e]purin-2-yl)-1H-imidazo[4,5-c]pyridin-4-amine]",150 nM
15,"CN(C)c1nc(-c2cnc3[nH]cc(C#N)c3c2)nc2c1nc1n2CCCOC1 [Example 128, 5-(4-(dimethylamino)-6,8,9,10-tetrahydro-[1,4]oxazepino[4,3-e]purin-2-yl)-1H-pyrrolo[2,3-b]pyridine-3-carbonitrile]",17.9 nM
16,"CN(C)c1nc(-c2cnc3[nH]cc(C(F)(F)F)c3c2)nc2c1nc1n2CCCOC1 [Example 129, N,N-dimethyl-2-(3-(trifluoromethyl)-1H-pyrrolo[2,3-b]pyridin-5-yl)-6,8,9,10-tetrahydro-[1,4]oxazepino[4,3-e]purin-4-amine]",1.64 nM
17,"COC1CN(c2nc(-c3cnc4[nH]cc(C(F)(F)F)c4c3)nc3c2nc2n3CCOCC2)C1 [Example 131, 4-(3-methoxyazetidin-1-yl)-2-(3-(trifluoromethyl)-1H-pyrrolo[2,3-b]pyridin-5-yl)-6,7,9,10-tetrahydro-[1,4]oxazepino[4,5-e]purine]",60.7 nM
18,"Nc1ncc(-c2nc(N3CC4CC3C4)c3nc4n(c3n2)CCCOC4)cn1 [Example 132, 5-(4-(2-azabicyclo[2.1.1]hexan-2-yl)-6,8,9,10-tetrahydro-[1,4]oxazepino[4,3-e]purin-2-yl)pyrimidin-2-amine]",281 nM

row,Compound,Ki
1,"Nc1ncc(-c2nc(N3CC4CC3C4)c3nc4n(c3n2)CCOCC4)cn1 [Example 133, 5-(4-(2-azabicyclo[2.1.1]hexan-2-yl)-6,7,9,10-tetrahydro-[1,4]oxazepino[4,5-e]purin-2-yl)pyrimidin-2-amine]",447 nM
2,"CC1(C)OCCCn2c1nc1c(N3CCCC3)nc(-c3cnc(N)nc3)nc12 [Example 134, 5-(6,6-dimethyl-4-(pyrrolidin-1-yl)-6,8,9,10-tetrahydro-[1,4]oxazepino[4,3-e]purin-2-yl)pyrimidin-2-amine]",210 nM
3,"Nc1ncc(-c2nc(N3CC4CC3C4)c3nc4n(c3n2)CCCOC4)cc1OC(F)F [Example 135, 5-(4-(2-azabicyclo[2.1.1]hexan-2-yl)-6,8,9,10-tetrahydro-[1,4]oxazepino[4,3-e]purin-2-yl)-3-(difluoromethoxy)pyridin-2-amine]",30.8 nM
4,"COC1CN(c2nc(-c3cnc(N)c(OC(F)F)c3)nc3c2nc2n3CCCOC2)C1 [Example 136, 3-(difluoromethoxy)-5-(4-(3-methoxyazetidin-1-yl)-6,8,9,10-tetrahydro-[1,4]oxazepino[4,3-e]purin-2-yl)pyridin-2-amine]",687 nM
5,"CC1(C)OCCCn2c1nc1c(N3CC4CC3C4)nc(-c3cnc(N)nc3)nc12 [Example 137, 5-(4-(2-azabicyclo[2.1.1]hexan-2-yl)-6,6-dimethyl-6,8,9,10-tetrahydro-[1,4]oxazepino[4,3-e]purin-2-yl)pyrimidin-2-amine]",177 nM
6,CC1(C)OCCn2c1nc1c(N3CC4CC3C4)nc(-c3cnc(N)c(C#N)c3)cc12 [Example 144],2.23 nM
7,COC1CN(c2nc(-c3cnc4[nH]cc(C(F)(F)F)c4c3)nc3c2nc2n3CCCOC2)C1 [Example 145],6.49 nM
8,CC1(C)OCCn2c1nc1c(N3CC4CC3C4)nc(-c3cnc4[nH]cnc4c3)nc12 [Example 146],32.2 nM
9,CC1(C)OCCn2c1nc1c(N3CC4CCC3C4)nc(-c3cnc4[nH]cnc4c3)nc12 (centres unmarked) [Example 147],39.5 nM
10,CC1(C)OCCn2c1nc1c(C3CC3)nc(-c3cnc(N)c(OC(F)F)c3)cc12 [Example 148],56.9 nM
11,COC1CN(c2nc(-c3cnc(N)c(OC(F)F)c3)nc3c2nc2n3CCOC2(C)C)C1 [Example 149],73.7 nM
12,CC1(C)OCCn2c1nc1c(N3CC4CC3C4)nc(-c3cnc(N)c(C(F)(F)F)c3)nc12 [Example 150],112 nM
13,C[C@H]1Cn2c(nc3c(N4CC5CC4C5)nc(-c4cnc(N)nc4)nc32)[C@@H](C)O1 [Example 151],120 nM
14,CC1(C)OCCn2c1nc1c(N3CC(C#N)C3)nc(-c3cnc4[nH]cc(F)c4c3)nc12 [Example 152],183 nM
15,C[C@@H]1O[C@@H](C)Cn2c1nc1c(N3CC4CC3C4)nc(-c3cnc(N)nc3)nc12 [Example 153],261 nM
16,CC(Oc1nc(-c2cnc(N)nc2)nc2c1nc1n2CCOC1(C)C)C1CC1 (centres unmarked) [Example 155],1200 nM
17,CC1(C)OCCn2c1nc1c(N3CCC4(CCCO4)C3)nc(-c3cnc(N)nc3)nc12 (centres unmarked) [Example 156],1300 nM
